In brackets after ≈: the same amount, converted by molar mass.
test system: Plasmodium falciparum; assay: In vitro antimalarial activity against Plasmodium falciparum 3D7; format: functional, organism-based

Compared with `C=CC(C)(C)c1cc(/C=C/C(=O)c2ccc(O)cc2)c(OC)cc1O` [LICOAGROCHACONE A], `COc1ccc(Br)cc1/C=C/C(=O)c1ccc(C)cc1` is 4.5-fold higher in IC50: 2.2 µg/mL (≈ 6.5 µM) for the first, 10 µg/mL (≈ 30.2 µM) for the second.

`COc1ccc(/C=C/C(=O)c2ccc(OC)cc2)cc1` [4,4'-DIMETHOXYCHALCONE] and `COc1ccc(C(=O)/C=C/c2ccc(OC)cc2OC)cc1` are within 1.5-fold of each other in IC50: 8.9 µg/mL (≈ 33.2 µM) for the first, 6 µg/mL (≈ 20.1 µM) for the second.

`COc1cccc(/C=C/C(=O)c2ccccc2C)c1OC` and `COc1ccc(Br)cc1/C=C/C(=O)c1ccccc1C` are within 1.5-fold of each other in IC50: 11 µg/mL (≈ 39 µM) for the first, 9.3 µg/mL (≈ 28.1 µM) for the second.

`O=C(/C=C/c1ccccc1)c1ccccc1` [CHALCONE] and `COc1ccccc1/C=C/C(=O)c1ccccc1` are within 1.5-fold of each other in IC50: 6.7 µg/mL (≈ 32.2 µM) for the first, 7.6 µg/mL (≈ 31.9 µM) for the second.

Compared with `Cc1ccccc1C(=O)C1=Cc2cc(Br)ccc2OC1`, `Cc1ccc(C(=O)C2=Cc3cc(Br)ccc3OC2)cc1` is 1.6-fold lower in IC50: 13.5 µg/mL (≈ 41 µM) for the first, 8.6 µg/mL (≈ 26.1 µM) for the second.

First: O=C(C1=C(c2ccccc2)CCC1)c1ccccc1
Second: O=C(C1=Cc2ccccc2OC1)c1ccccc1
The IC50 of the first is 7.4-fold higher: 35 µg/mL (≈ 141 µM) for the first, 4.7 µg/mL (≈ 19.9 µM) for the second.

Compared with `COc1ccc(C(=O)C2=C(c3ccc(OC)cc3)CCC2)cc1`, `COc1ccc(C(=O)C2=Cc3ccc(OC)cc3OC2)cc1` is lower in IC50: greater than 100 µg/mL for the first, 13.3 µg/mL (≈ 44.9 µM) for the second.

In the case of `COc1cccc2c1OCC(C(=O)c1ccccc1C)=C2`, the IC50 was 15.1 µg/mL (≈ 53.9 µM).

— ChEMBL document CHEMBL1143478, “Conformationally restricted anti-plasmodial chalcones” (Bioorg Med Chem Lett, 2005)
